In patent publication US11357734B2, “Pharmaceutical granulations of water-soluble active pharmaceutical ingredients” (XWPHARMA LTD., priority 2020, dated 2022):

Legend:
Format in all cases: physicochemical
[1] = Bulk density (USP 616, Method 1; bulk density cylinder)
Source text: Bulk density can be determined according to USP 616, Method 1.
Bulk density can be determined using a bulk density cylinder.

[2] = Tapped bulk density (USP 616); settings: active pharmaceutical ingredient used in Example 13
Source text: Tapped bulk density can be determined according to USP 616.

Hausner Ratio (USP 1174) = settings: active pharmaceutical ingredient used in Example 13
Source text: The Hausner Ratio can be determined according to USP 1174.

[3] = Particle size distribution by laser diffraction
Source text: The parameter D90 refers to the point in the size distribution of a sample, up to and including which, 90% of the total volume of material in the sample is contained. For example for a D90 of 400 μm, 90% of the sample volume has a size of 400 μm or less. D50 is the size below which 50% of the total volume of material in the sample is contained. Similarly, D10 refers to the size below which 10% of the total volume of material in the sample is contained. The volume distribution of the sample can be determined by laser diffraction or by sieve analysis.
A particle size distribution can be determined by laser diffraction or by sieve analysis.
FIGS. 15 and 16 show a particle size distribution of as-crystallized active pharmaceutical ingredient and jet-milled active pharmaceutical ingredient, respectively, as determined by laser diffraction. The PSD of the as-crystallized active pharmaceutical ingredient was characterized by a D10 of 11.8 μm, a D50 of 34.0 μm, and a D90 of 72.3 μm. The PSD of the jet-milled active pharmaceutical ingredient was characterized by a D10 of 7.8 μm, a D50 of 16.1 μm, and a D90 of 21.5 μm.

[4] = Specific surface area by laser diffraction
Protocol: Specific surface area can be determined by laser diffraction.
The specific surface area distributions of as-crystallized active pharmaceutical ingredient and jet-milled active pharmaceutical ingredient was determined by laser diffraction. […] In other samples, the jet milled active pharmaceutical ingredient was characterized by a specific surface area of 1174 m^2/kg.

[5] = active pharmaceutical ingredient used in Example 13
[6] = FIGS. 15 and 16, laser diffraction, listed as as-crystallized active pharmaceutical ingredient
[7] = FIGS. 15 and 16, laser diffraction, listed as jet-milled active pharmaceutical ingredient

| SMILES | API Bulk Density [1, 5] | API Tapped Bulk Density [2] | Hausner Ratio (Hausner Ratio (USP 1174)) | PSD D10 [3, 6] | PSD D50 [3, 6] | PSD D90 [3, 6] | PSD D10 [3, 5] | PSD D50 [3, 5] | PSD D90 [3, 5] | specific surface area [4, 5] | specific surface area ([4]; laser diffraction, listed as as-crystallized active pharmaceutical ingredient) | API Bulk Density ([1]; Jet Milled API used for granulation (13)) | PSD D10 [3, 7] | PSD D50 [3, 7] | PSD D90 [3, 7] | specific surface area ([4]; in other samples) | specific surface area ([4]; laser diffraction, listed as jet-milled active pharmaceutical ingredient) | bulk density ([1]; active pharmaceutical ingredient of Example 9, before Comil) | bulk density ([1]; active pharmaceutical ingredient used in Examples 1-6) |
| --- | --- | --- | --- | --- | --- | --- | --- | --- | --- | --- | --- | --- | --- | --- | --- | --- | --- | --- | --- |
| CC(C)[C@H](N)C(=O)OCCCC(=O)O [As-Crystallized, 4-((L-valyl)oxy)butanoic acid] | 0.20 g/mL | 0.38 g/mL | 1.85 | 11.8 μm | 34.0 μm | 72.3 μm | 12 μm | 34 μm | 71 μm | 291 m^2/kg | 291 m^2/kg | – | – | – | – | – | – | – | – |
| CC(C)[C@H](N)C(=O)OCCCC(=O)O [Jet-Milled, 4-((L-valyl)oxy)butanoic acid] | 0.12 g/mL | 0.20 g/mL | 1.700 | – | – | – | 8 μm | 16 μm | 28 μm | 478 m^2/kg | – | 0.12 g/mL | 7.8 μm | 16.1 μm | 21.5 μm | 1174 m^2/kg | 478 m^2/kg | – | – |
| CC(C)[C@H](N)C(=O)OCCCC(=O)O [active pharmaceutical ingredient, 4-((L-valyl)oxy)butanoic acid] | – | – | – | – | – | – | – | – | – | – | – | – | – | – | – | – | – | 0.263 g/mL | 0.15 g/mL |
